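The compound was tested at five concentrations on cells cultured in 96-well plates, with a 48-hour exposure period. GI50 = concentration required for 50% inhibition of growth. Definition used: TGI = concentration required for complete inhibition of growth.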
Experiments:
Assay in all cases: growth of human tumour cells (NCI), 48 h
ACHN renal = tested on: ACHN renal
SF-268 CNS = tested on: SF-268 CNS
NCI-H460 lung = tested on: NCI-H460 lung
PC-3 prostate = tested on: PC-3 prostate
DU-145 prostate = tested on: DU-145 prostate
HL-60(TB) leukemia = tested on: HL-60(TB) leukemia
NCI/ADR-RES ovarian = tested on: NCI/ADR-RES ovarian
HOP-62 NSCLC = tested on: HOP-62 NSCLC
SF-295 CNS = tested on: SF-295 CNS
SK-MEL-28 melanoma = tested on: SK-MEL-28 melanoma
HCT-116 colon = tested on: HCT-116 colon
MDA-MB-231 breast = tested on: MDA-MB-231 breast
SK-OV-3 ovarian = tested on: SK-OV-3 ovarian
HS 578T breast = tested on: HS 578T breast
UACC-62 melanoma = tested on: UACC-62 melanoma
HCT-15 colon = tested on: HCT-15 colon
T-47D breast = tested on: T-47D breast
KM12 colon = tested on: KM12 colon
MDA-MB-468 breast = tested on: MDA-MB-468 breast
SW-620 colon = tested on: SW-620 colon
BT-549 breast = tested on: BT-549 breast
TK-10 renal = tested on: TK-10 renal
OVCAR-4 ovarian = tested on: OVCAR-4 ovarian
CAKI-1 renal = tested on: CAKI-1 renal
SK-MEL-5 melanoma = tested on: SK-MEL-5 melanoma
HT29 colon = tested on: HT29 colon
CCRF-CEM leukemia = tested on: CCRF-CEM leukemia
MDA-MB-435 = tested on: MDA-MB-435
MOLT-4 leukemia = tested on: MOLT-4 leukemia
UACC-257 melanoma = tested on: UACC-257 melanoma
SK-MEL-2 melanoma = tested on: SK-MEL-2 melanoma
SN12C renal = tested on: SN12C renal
OVCAR-3 ovarian = tested on: OVCAR-3 ovarian
MCF7 breast = tested on: MCF7 breast
SR leukemia = tested on: SR leukemia
COLO 205 colon = tested on: COLO 205 colon
EKVX NSCLC = tested on: EKVX NSCLC
SNB-19 CNS = tested on: SNB-19 CNS
OVCAR-5 ovarian = tested on: OVCAR-5 ovarian
M14 melanoma = tested on: M14 melanoma
SNB-75 CNS = tested on: SNB-75 CNS
K-562 leukemia = tested on: K-562 leukemia
NCI-H226 lung = tested on: NCI-H226 lung
NCI-H522 lung = tested on: NCI-H522 lung
HOP-92 NSCLC = tested on: HOP-92 NSCLC
HCC-2998 colon = tested on: HCC-2998 colon
MALME-3M melanoma = tested on: MALME-3M melanoma
786-0 renal = tested on: 786-0 renal
A549 NSCLC = tested on: A549 NSCLC
IGROV1 ovarian = tested on: IGROV1 ovarian
U251 CNS = tested on: U251 CNS
SF-539 CNS = tested on: SF-539 CNS
NCI-H23 lung = tested on: NCI-H23 lung
RPMI-8226 leukemia = tested on: RPMI-8226 leukemia
LOX IMVI melanoma = tested on: LOX IMVI melanoma
OVCAR-8 ovarian = tested on: OVCAR-8 ovarian
RXF 393 renal = tested on: RXF 393 renal
UO-31 renal = tested on: UO-31 renal
A498 renal = tested on: A498 renal

O=C(COc1ccc(NC(=O)Nc2ccc(Cl)cc2)cc1)N=Nc1c(O)[nH]c2ccc([N+](=O)[O-])cc12
GI50 (ACHN renal): 26.8 µM | TGI (ACHN renal): > 100 µM | GI50 (SF-268 CNS): 4.81 µM | TGI (SF-268 CNS): 18.7 µM | GI50 (NCI-H460 lung): 3.07 µM | TGI (NCI-H460 lung): 33.9 µM | GI50 (PC-3 prostate): 6.59 µM | TGI (PC-3 prostate): > 100 µM | GI50 (DU-145 prostate): 10.3 µM | TGI (DU-145 prostate): > 100 µM | GI50 (HL-60(TB) leukemia): > 100 µM | TGI (HL-60(TB) leukemia): > 100 µM | GI50 (NCI/ADR-RES ovarian): > 100 µM | TGI (NCI/ADR-RES ovarian): > 100 µM | GI50 (HOP-62 NSCLC): 14.3 µM | TGI (HOP-62 NSCLC): 30.6 µM | GI50 (SF-295 CNS): 16.5 µM | TGI (SF-295 CNS): 34 µM | GI50 (SK-MEL-28 melanoma): 2.49 µM | TGI (SK-MEL-28 melanoma): 7.97 µM | GI50 (HCT-116 colon): 3.65 µM | TGI (HCT-116 colon): 13.6 µM | GI50 (MDA-MB-231 breast): 2.84 µM | TGI (MDA-MB-231 breast): 9.44 µM | GI50 (SK-OV-3 ovarian): 21.6 µM | TGI (SK-OV-3 ovarian): 55.8 µM | GI50 (HS 578T breast): 2.96 µM | TGI (HS 578T breast): 15.8 µM | GI50 (UACC-62 melanoma): 6.99 µM | TGI (UACC-62 melanoma): 26.6 µM | GI50 (HCT-15 colon): > 100 µM | TGI (HCT-15 colon): > 100 µM | GI50 (T-47D breast): 4 µM | TGI (T-47D breast): 30.2 µM | GI50 (KM12 colon): 1.95 µM | TGI (KM12 colon): 11 µM | GI50 (MDA-MB-468 breast): 1.98 µM | TGI (MDA-MB-468 breast): 4.82 µM | GI50 (SW-620 colon): 3.34 µM | TGI (SW-620 colon): > 100 µM | GI50 (BT-549 breast): 14.2 µM | TGI (BT-549 breast): 29.8 µM | GI50 (TK-10 renal): 23.7 µM | TGI (TK-10 renal): 59.7 µM | GI50 (OVCAR-4 ovarian): 3.95 µM | TGI (OVCAR-4 ovarian): 24.8 µM | GI50 (CAKI-1 renal): 69.7 µM | TGI (CAKI-1 renal): > 100 µM | GI50 (SK-MEL-5 melanoma): 12.4 µM | TGI (SK-MEL-5 melanoma): > 100 µM | GI50 (HT29 colon): 6.81 µM | TGI (HT29 colon): > 100 µM | GI50 (CCRF-CEM leukemia): 2.56 µM | TGI (CCRF-CEM leukemia): 8.18 µM | GI50 (MDA-MB-435): 3.7 µM | TGI (MDA-MB-435): 20.5 µM | GI50 (MOLT-4 leukemia): 5.25 µM | TGI (MOLT-4 leukemia): > 100 µM | GI50 (UACC-257 melanoma): 20.1 µM | TGI (UACC-257 melanoma): > 100 µM | GI50 (SK-MEL-2 melanoma): 7.09 µM | TGI (SK-MEL-2 melanoma): 20.3 µM | GI50 (SN12C renal): 4.74 µM | TGI (SN12C renal): 23.9 µM | GI50 (OVCAR-3 ovarian): 2.25 µM | TGI (OVCAR-3 ovarian): 6.58 µM | GI50 (MCF7 breast): 2.06 µM | TGI (MCF7 breast): 6.36 µM | GI50 (SR leukemia): 18 µM | TGI (SR leukemia): > 100 µM | GI50 (COLO 205 colon): 5.21 µM | TGI (COLO 205 colon): > 100 µM | GI50 (EKVX NSCLC): 22.3 µM | TGI (EKVX NSCLC): > 100 µM | GI50 (SNB-19 CNS): 10.1 µM | TGI (SNB-19 CNS): 23.6 µM | GI50 (OVCAR-5 ovarian): 24 µM | TGI (OVCAR-5 ovarian): > 100 µM | GI50 (M14 melanoma): 5.83 µM | TGI (M14 melanoma): > 100 µM | GI50 (SNB-75 CNS): 4.82 µM | TGI (SNB-75 CNS): 24.2 µM | GI50 (K-562 leukemia): 8.47 µM | TGI (K-562 leukemia): > 100 µM | GI50 (NCI-H226 lung): 4.12 µM | TGI (NCI-H226 lung): 24.2 µM | GI50 (NCI-H522 lung): 2.4 µM | TGI (NCI-H522 lung): 8.03 µM | GI50 (HOP-92 NSCLC): 3.01 µM | TGI (HOP-92 NSCLC): 12.4 µM | GI50 (HCC-2998 colon): 6.18 µM | TGI (HCC-2998 colon): > 100 µM | GI50 (MALME-3M melanoma): 2.6 µM | TGI (MALME-3M melanoma): 8.74 µM | GI50 (786-0 renal): 15.6 µM | TGI (786-0 renal): 34.6 µM | GI50 (A549 NSCLC): > 100 µM | TGI (A549 NSCLC): > 100 µM | GI50 (IGROV1 ovarian): 13.6 µM | TGI (IGROV1 ovarian): 30.7 µM | GI50 (U251 CNS): 6.42 µM | TGI (U251 CNS): 19.6 µM | GI50 (SF-539 CNS): 3.36 µM | TGI (SF-539 CNS): 15.3 µM | GI50 (NCI-H23 lung): 5.79 µM | TGI (NCI-H23 lung): 18.3 µM | GI50 (RPMI-8226 leukemia): 7.3 µM | TGI (RPMI-8226 leukemia): > 100 µM | GI50 (LOX IMVI melanoma): 3.21 µM | TGI (LOX IMVI melanoma): 11.5 µM | GI50 (OVCAR-8 ovarian): 12.7 µM | TGI (OVCAR-8 ovarian): > 100 µM | GI50 (RXF 393 renal): 5.69 µM | TGI (RXF 393 renal): 26.8 µM | GI50 (UO-31 renal): > 100 µM | TGI (UO-31 renal): > 100 µM | GI50 (A498 renal): 21.1 µM | TGI (A498 renal): 43.2 µM

Reference: PubChem BioAssay (NCI)
